Among the data in US8889667B2 (Agios Pharmaceuticals, Inc, priority 2010, dated 2014) are AC50 values, retold here.

Usually AC50 stands for the concentration at which the activity in the assay is half-maximal. Higher therefore signals activity only at high concentration.

This test concerns the target PKM2 (Homo sapiens, UniProt P14618). Put plainly: PKM2 Assay (activation, LDH-coupled, absorbance at 340 nm). It is filed as biochemical. The method, boiled down: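 Human PKM2 (50 ng/well) was preincubated with compound and coupling mix for 30 min at 4 °C without ADP. Reactions were then started with ADP (0.7 mM) alongside PEP 0.15 mM, NADH 180 μM and LDH, in Tris pH 7.5/KCl/MgCl2/DTT/BSA buffer. A340 was followed at 25 °C and activation reported as AC50.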

Sequence of PKM2 (P14618 whole entry): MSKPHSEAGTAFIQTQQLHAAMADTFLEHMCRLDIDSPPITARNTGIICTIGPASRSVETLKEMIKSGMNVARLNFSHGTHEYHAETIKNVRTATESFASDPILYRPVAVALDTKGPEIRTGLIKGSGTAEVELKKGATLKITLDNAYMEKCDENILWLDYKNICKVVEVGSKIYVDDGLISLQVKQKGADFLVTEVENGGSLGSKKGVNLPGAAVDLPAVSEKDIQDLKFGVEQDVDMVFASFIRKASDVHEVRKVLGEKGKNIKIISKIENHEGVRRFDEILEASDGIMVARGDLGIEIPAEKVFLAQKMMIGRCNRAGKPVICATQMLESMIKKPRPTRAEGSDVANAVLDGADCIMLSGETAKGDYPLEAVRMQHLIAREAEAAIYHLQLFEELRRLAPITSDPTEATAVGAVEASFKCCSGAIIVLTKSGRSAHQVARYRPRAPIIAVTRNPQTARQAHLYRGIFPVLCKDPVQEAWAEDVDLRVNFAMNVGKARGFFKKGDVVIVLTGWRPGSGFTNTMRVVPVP

The compound `C[C@H]1CN(C[C@@H]2CCOC2)CCN1C(=O)c1ccc(NS(=O)(=O)c2cccc3cccnc23)cc1` [Compound 209] registered an AC50 (Table 4) of 100 to 500 nM.

Compound `C[C@@H]1CN(C(=O)OC2CCCCC2)CCN1C(=O)c1ccc(NS(=O)(=O)c2cccc3cccnc23)cc1` [Compound 123, (R)-Cyclohexyl 3-methyl-4-(4-(quinoline-8-sulfonamido)benzoyl)piperazine-1-carboxylate] displayed an AC50 (Table 4) of less than 100 nM.

As to `CC(C)(C1CC1)N1CCN(C(=O)c2ccc(NS(=O)(=O)c3cccc4cccnc34)cc2)CC1` [Compound 438, N-(4-(4-(2-cyclopropylpropan-2-yl)piperazine-1-carbonyl)phenyl)quinoline-8-sulfonamide], the AC50 (Table 5) was less than 100 nM.

As to `O=C(c1ccc(NS(=O)(=O)c2cccc3cccnc23)cc1)N1CCN(C2(c3ccccc3)CCC2)CC1` [Compound 408, N-(4-(4-(1-phenylcyclobutyl)piperazine-1-carbonyl)phenyl)quinoline-8-sulfonamide], the AC50 (Table 5) was less than 100 nM.

`CC(c1ccc(F)c(Cl)c1)N1CCN(C(=O)c2ccc(NS(=O)(=O)c3cccc4cccnc34)cc2)CC1` (centres unmarked) [Compound 332, N-(4-(4-(1-(3-chloro-4-fluorophenyl)ethyl)piperazine-1-carbonyl)phenyl)quinoline-8-sulfonamide] displayed an AC50 (Table 5) of less than 100 nM.

Take `O=C(c1ccc(NS(=O)(=O)c2cccc3cccnc23)nc1)N1CCN(Cc2ccc(F)cc2)CC1` [Compound 412, N-(5-(4-(4-fluorobenzyl)piperazine-1-carbonyl)pyridin-2-yl)quinoline-8-sulfonamide]: where the note is “Table 5”, the AC50 was 100 to 500 nM.

For the setting “Table 4”, `CC1CN(CC2CCOC2)CC(C)N1C(=O)c1ccc(NS(=O)(=O)c2cccc3cccnc23)cc1` (centres unmarked) [Compound 204, N-(4-(2,6-dimethyl-4-((tetrahydrofuran-3-yl)methyl)piperazine-1-carbonyl)phenyl)quinoline-8-sulfonamide] registered an AC50 of 500 to 1000 nM.

For `CC(C)COC(=O)N1[C@H](C)CN(C(=O)c2ccc(NS(=O)(=O)c3cccc4cccnc34)cc2)C[C@@H]1C` [Compound 105, (2S,6R)-isobutyl-2,6-dimethyl-4-(4-(quinoline-8-sulfonamido)benzoyl)piperazine-1-carboxylate], the AC50 (Table 4) is 100 to 500 nM.

For `CC(c1ccc(Cl)c(F)c1)N1CCN(C(=O)c2ccc(NS(=O)(=O)c3cccc4cccnc34)cc2)[C@@H](C)C1` (some centres unmarked) [Compound 182], the AC50 (Table 4) was 100 to 500 nM.

On to `COc1cc(NS(=O)(=O)c2cccc3cccnc23)ccc1C(=O)N1CCN(C2(c3ccccc3)CC2)CC1` [Compound 393, N-(3-methoxy-4-(4-(1-phenylcyclopropyl)piperazine-1-carbonyl)phenyl)quinoline-8-sulfonamide], for which, where the note is “Table 5”, the AC50 is less than 100 nM.

With `CC[C@H]1CN(Cc2cc(F)cc(F)c2)CCN1C(=O)c1ccc(NS(=O)(=O)c2cccc3cccnc23)cc1` [Compound 136, (S)—N-(4-(4-(3,5-difluorobenzyl)-2-ethylpiperazine-1-carbonyl)phenyl)quinoline-8-sulfonamide], where the note is “Table 4”, the half-maximal activity concentration (AC50) lay within 100 to 500 nM.

On to `COc1cc(C(=O)N2CCN(C(=O)Oc3ccccn3)CC2)ccc1NS(=O)(=O)c1cccc2cccnc12` [Compound 315, Pyridin-2-yl 4-(3-methoxy-4-(quinoline-8-sulfonamido)benzoyl)piperazine-1-carboxylate], for which, where the note is “Table 5”, the half-maximal activity concentration (AC50) lay in the range of 100 to 500 nM.

`C[C@H]1CN(Cc2ccc(F)cc2)CCN1C(=O)c1ccc(NS(=O)(=O)c2cccc3cccnc23)cc1Cl` [Compound 184, (S)—N-(3-chloro-4-(4-(4-fluorobenzyl)-2-methylpiperazine-1-carbonyl)phenyl)quinoline-8-sulfonamide] had an AC50 (Table 4) of 100 to 500 nM.

As to `C[C@@H]1CN(C(=O)OCCC2CCCCC2)CCN1C(=O)c1ccc(NS(=O)(=O)c2cccc3cccnc23)cc1` [Compound 121, (R)-2-Cyclohexylethyl 3-methyl-4-(4-(quinoline-8-sulfonamido)benzoyl)piperazine-1-carboxylate], for the setting “Table 4”, the AC50 was in the range of 100 to 500 nM.

`C[C@H]1CN(C(=O)O[C@@H]2CCOC2)CCN1C(=O)c1ccc(NS(=O)(=O)c2cccc3cccnc23)cc1` [Compound 166] showed a half-maximal activity concentration (AC50) (Table 4) of 100 to 500 nM.

Turning to `COc1cc(C(=O)N2CCN(C(=O)c3cccc(F)c3F)CC2)ccc1NS(=O)(=O)c1cccc2cccnc12` [Compound 318, N-(4-(4-(2,3-difluorobenzoyl)piperazine-1-carbonyl)-2-methoxyphenyl)quinoline-8-sulfonamide], for the setting “Table 5”, the AC50 is 100 to 500 nM.

The compound `C[C@H]1CN(Cc2c(F)cc(F)cc2F)CCN1C(=O)c1ccc(NS(=O)(=O)c2cccc3cccnc23)cc1` [Compound 164, (S)—N-(4-(2-methyl-4-(2,4,6-trifluorobenzyl)piperazine-1-carbonyl)phenyl)quinoline-8-sulfonamide] came in with an AC50 (Table 4) of 100 to 500 nM.

Regarding `O=C(c1ccc(NS(=O)(=O)c2cccc3cccnc23)cc1)N1CCN(Cc2cc(F)cc(F)c2)CC1` [Compound 394, N-(4-(4-(3,5-difluorobenzyl)piperazine-1-carbonyl)phenyl)quinoline-8-sulfonamide], the AC50 (Table 5) is less than 100 nM.

As for `O=C(c1ccc(NS(=O)(=O)c2cccc3cccnc23)c(OC(F)(F)F)c1)N1CCN(Cc2ccncc2F)CC1` [Compound 304, N-(4-(4-((3-fluoropyridin-4-yl)methyl)piperazine-1-carbonyl)-2-(trifluoromethoxy)phenyl)quinoline-8-sulfonamide], for the setting “Table 5”, the AC50 fell in the range of 100 to 500 nM.

For the setting “Table 4”, `CC(C)OC(=O)N1CCN(C(=O)c2ccc(NS(=O)(=O)c3cccc4cccnc34)cc2)[C@H](C)C1` [Compound 110, (R)-Isopropyl 3-methyl-4-(4-(quinoline-8-sulfonamido)benzoyl)piperazine-1-carboxylate] returned an AC50 of less than 100 nM.

Regarding `O=C(c1ccc(NS(=O)(=O)c2cccc3cccnc23)cc1F)N1CCN(CC2CCOC2)CC1` (centres unmarked) [Compound 425, N-(3-fluoro-4-(4-((tetrahydrofuran-3-yl)methyl)piperazine-1-carbonyl)phenyl)quinoline-8-sulfonamide], the AC50 (Table 5) is less than 100 nM.

On to `C[C@H]1CN(C(=O)c2ccccn2)CCN1C(=O)c1ccc(NS(=O)(=O)c2cccc3cccnc23)cc1` [Compound 101], for which the concentration at half-maximal activity (AC50) (Table 4) fell in the range of 100 to 500 nM.

In turn, `C[C@H]1CN(Cc2ccc(Cl)c(F)c2)CCN1C(=O)c1ccc(NS(=O)(=O)c2cccc3cccnc23)cc1` [Compound 138, (S)—N-(4-(4-(4-chloro-3-fluorobenzyl)-2-methylpiperazine-1-carbonyl)phenyl)quinoline-8-sulfonamide] showed an AC50 (Table 4) of 100 to 500 nM.

In the case of `O=C(c1ccc(NS(=O)(=O)c2cccc3cccnc23)c(OC(F)(F)F)c1)N1CCN(Cc2cccc(Cl)c2)CC1` [Compound 379, N-(4-(4-(3-chlorobenzyl)piperazine-1-carbonyl)-2-(trifluoromethoxy)phenyl)quinoline-8-sulfonamide], the AC50 (Table 5) was 100 to 500 nM.

On to `C[C@H]1CN(CC2CC2)CCN1C(=O)c1ccc(NS(=O)(=O)c2cccc3cccnc23)cc1` [Compound 144, (S)—N-(4-(4-(cyclopropylmethyl)-2-methylpiperazine-1-carbonyl)phenyl)quinoline-8-sulfonamide], for which the AC50 (Table 4) was less than 100 nM.

`CCOC(=O)N1CCN(C(=O)c2ccc(NS(=O)(=O)c3cccc4cccnc34)cc2)[C@H](C)C1` [Compound 109, (R)-Ethyl 3-methyl-4-(4-(quinoline-8-sulfonamido)benzoyl)piperazine-1-carboxylate] had a concentration at half-maximal activity (AC50) (Table 4) of 100 to 500 nM.

The compound `CC1CN(Cc2cc(F)cc(F)c2)CC(C)N1C(=O)c1ccc(NS(=O)(=O)c2cccc3cccnc23)cc1` (centres unmarked) [Compound 194, N-(4-(4-(3,5-difluorobenzyl)-2,6-dimethylpiperazine-1-carbonyl)phenyl)quinoline-8-sulfonamide] registered an AC50 (Table 4) of less than 100 nM.

Turning to `C[C@H]1CN(Cc2c(F)cc(F)cc2F)CCN1C(=O)c1ccc(NS(=O)(=O)c2cccc3cccnc23)cc1Cl` [Compound 188, (S)—N-(3-chloro-4-(2-methyl-4-(2,4,6-trifluorobenzyl)piperazine-1-carbonyl)phenyl)quinoline-8-sulfonamide], the AC50 (Table 4) is 500 to 1000 nM.

The compound `C[C@H]1CN(Cc2ccc(Cl)c(F)c2)CCN1C(=O)c1ccc(NS(=O)(=O)c2cccc3cccnc23)cc1Cl` [Compound 185, (S)—N-(3-chloro-4-(4-(4-chloro-3-fluorobenzyl)-2-methylpiperazine-1-carbonyl)phenyl)quinoline-8-sulfonamide] had an AC50 (Table 4) of 500 to 1000 nM.

`CC(C)(c1cc(F)cc(F)c1)N1CCN(C(=O)c2ccc(NS(=O)(=O)c3cccc4cccnc34)cc2)CC1` [Compound 410] displayed an AC50 (Table 5) of less than 100 nM.

For the compound `CC(c1ccc(Cl)c(F)c1)N1CCN(C(=O)c2ccc(NS(=O)(=O)c3cccc4cccnc34)cc2)[C@H](C)C1` (stereo partly drawn) [Compound 157, N-(4-((2R)-4-(1-(4-chloro-3-fluorophenyl)ethyl)-2-methylpiperazine-1-carbonyl)phenyl)quinoline-8-sulfonamide], the AC50 (Table 4) was in the range of 100 to 500 nM.

For `CC(c1ccc(F)c(F)c1F)N1CCN(C(=O)c2ccc(NS(=O)(=O)c3cccc4cccnc34)cc2)[C@H](C)C1` (stereo partly drawn) [Compound 189, N-(4-((2R)-2-methyl-4-(1-(2,3,4-trifluorophenyl)ethyl)piperazine-1-carbonyl)phenyl)quinoline-8-sulfonamide], the half-maximal activity concentration (AC50) (Table 4) was less than 100 nM.

Under “Table 5”, `O=C(c1ccc(NS(=O)(=O)c2cccc3cccnc23)c(OC(F)(F)F)c1)N1CCN(C(=O)c2cscn2)CC1` [Compound 324, N-(4-(4-(thiazole-4-carbonyl)piperazine-1-carbonyl)-2-(trifluoromethoxy)phenyl)quinoline-8-sulfonamide] showed an AC50 of 100 to 500 nM.

Turning to `C[C@@H]1CN(CC2CCC2)CCN1C(=O)c1ccc(NS(=O)(=O)c2cccc3cccnc23)cc1` [Compound 206, (R)—N-(4-(4-(cyclobutylmethyl)-2-methylpiperazine-1-carbonyl)phenyl)quinoline-8-sulfonamide], the AC50 (Table 4) was less than 100 nM.

As for `CC(c1ccc(F)cc1)N1CCN(C(=O)c2ccc(NS(=O)(=O)c3cccc4cccnc34)cc2)[C@H](C)C1` (stereo partly drawn) [Compound 133, N-(4-((2R)-4-(1-(4-fluorophenyl)ethyl)-2-methylpiperazine-1-carbonyl)phenyl)quinoline-8-sulfonamide], the AC50 (Table 4) was less than 100 nM.
